According to ChEMBL document CHEMBL2151008, “Enhanced ROS production and cell death through combined photo- and sono-activation of conventional photosensitising drugs” (2011):
Active and inactive are the calls of the source. The calls are words filed in the database; no cut-off is given here.

Tests used:
[1] = ROS-generating activity of the photo-irradiated compound assessed as singlet oxygen generation measuring reduction in absorbance at 410 nm at 5 uM by DPBF oxidation method; set-up: scale not given: the % may be the effect or the level left
[2] = system: CHO; assay: Cytotoxicity against CHO cells assessed as cell death at 0.1 to 100 uM after 3 hrs followed by sono-irradiation for 30 secs measured 24 hrs post irradiation by MTT assay; format: functional, cell-based; conditions: Cricetulus griseus
[3] = ROS-generating activity of the sono-irradiated compound assessed as singlet oxygen generation measuring reduction in absorbance at 410 nm at 5 uM by DPBF oxidation method; set-up: scale not given: the % may be the effect or the level left
[4] = system: CHO; assay: Cytotoxicity against CHO cells assessed as cell death at 0.1 to 100 uM after 3 hrs followed by photo-irradiation for 30 secs measured 24 hrs post irradiation by MTT assay; format: functional, cell-based; conditions: Cricetulus griseus
[5] = ROS-generating activity of the photo/sono-irradiated compound assessed as singlet oxygen generation measuring reduction in absorbance at 410 nm at 5 uM by DPBF oxidation method; set-up: scale not given: the % may be the effect or the level left
[6] = system: CHO; assay: Cytotoxicity against CHO cells assessed as cell death at 0.1 to 100 uM after 3 hrs followed by photo/sono-irradiation for 30 secs measured 24 hrs post irradiation by MTT assay; format: functional, cell-based; conditions: Cricetulus griseus
[7] = system: CHO; assay: Cytotoxicity against CHO cells after 3 hrs by MTT assay; format: functional, Cricetulus griseus
[8] = system: CHO; assay: Cytotoxicity against CHO cells assessed as cell death at 100 uM after 3 hrs followed by photo-irradiation for 30 secs measured 24 hrs post irradiation by MTT assay; format: functional, Cricetulus griseus
[9] = system: CHO; assay: Cytotoxicity against CHO cells after 3 hrs followed by photo/sono-irradiation for 30 secs measured 24 hrs post irradiation by MTT assay; format: functional, Cricetulus griseus
[10] = system: CHO; assay: Cytotoxicity against CHO cells after 3 hrs followed by sono-irradiation for 30 secs measured 24 hrs post irradiation by MTT assay; format: functional, Cricetulus griseus
[11] = system: CHO; assay: Cytotoxicity against CHO cells assessed as cell death at 100 uM after 3 hrs followed by photo/sono-irradiation for 30 secs measured 24 hrs post irradiation by MTT assay; format: functional, Cricetulus griseus
[12] = system: CHO; assay: Cytotoxicity against CHO cells assessed as cell viability at 100 uM after 3 hrs by MTT assay; format: functional; conditions: Cricetulus griseus, read-out: Activity
[13] = system: CHO; assay: Cytotoxicity against CHO cells assessed as cell death at 100 uM after 3 hrs followed by sono-irradiation for 30 secs measured 24 hrs post irradiation by MTT assay; format: functional, Cricetulus griseus
[14] = system: CHO; assay: Cytotoxicity against CHO cells after 3 hrs followed by photo-irradiation for 30 secs measured 24 hrs post irradiation by MTT assay; format: functional, Cricetulus griseus
[15] = system: CHO; assay: Cytotoxicity against CHO cells assessed as cell death at 100 uM after 3 hrs followed by photo/sono-irradiation for 30 secs measured 24 hrs post irradiation by MTT assay relative to photo-irradiated cells; format: functional, Cricetulus griseus
[16] = system: CHO; assay: Cytotoxicity against CHO cells assessed as cell death at 100 uM after 3 hrs followed by photo/sono-irradiation for 30 secs measured 24 hrs post irradiation by MTT assay relative to sono-irradiated cells; format: functional, Cricetulus griseus

Structure (SMILES)	Activity [1] [%]	Activity [2]	Activity [3] [%]	Activity [4]	Activity [5] [%]	Activity [6]	LD50 [7] [µmol]	Activity [8] [%]	LD50 [9] [µmol]	LD50 [10] [µmol]	Activity [11] [%]	viability at 100 µM [12] [%]	Activity [13] [%]	LD50 [14] [µmol]	fold change (FC) [15]	Activity [16] [%]
CN(C)c1ccc2nc3ccc(=[N+](C)C)cc-3sc2c1	38.8	Active	40.1	Active	71.8	Active										
O=C([O-])c1c(Cl)c(Cl)c(Cl)c(Cl)c1-c1c2cc(I)c(=O)c(I)c-2oc2c(I)c([O-])c(I)cc12.[Na+].[Na+] [ROSE BENGAL SODIUM]	44.7		58.4		74.9		138.4	95	2	38.5	95	65	95	3.3		
CN(C)c1ccc2nc3ccc(N(C)C)cc3[s+]c2c1.[Cl-] [METHYLENE BLUE ANHYDROUS]												80			2	43
